A word on the IC50: it is the concentration needed to halve the response being measured.

IC50 data for 29 compounds are collected here from patent US9284283B2, “Macrocyclic compounds for modulating IL-17” (ENSEMBLE THERAPEUTICS CORPORATION, priority 2012, dated 2016).

The subject of assay [1] is IL-17A induced secretion of IL-6 in primary human RASF cells. Kind of assay: Inhibition of IL17A induced secretion of IL6 in human rheumatoid arthritis synovial fibroblast (RASF) cells. The format is cell-based. Particulars: Homo sapiens, Fibroblast. The method, then: This assay was used to determine the extent of inhibition of IL-17A induced secretion of IL-6 in primary human rheumatoid synovial fibroblast (RASF) cells by compounds of the invention. IL-17A is known to stimulate IL-6 production in RASF cells.
Low passage (passage 2-8) Primary human RASF cells (Asterand) were maintained in maintenance medium. Cells were detached from flasks by tryptic digestion and the cell density of the suspension determined. To each well of a 96 well culture plate was added 100 μL of seeding medium containing 50,000 cells/mL and the plate incubated overnight in a humidified 37° C., 5% CO2 incubator. The medium was replaced with fresh assay medium and cells were incubated for additional 5 hours in a humidified 37° C., 5% CO2 incubator prior to stimulation with recombinant human IL-17A (“rhIL-17A”). Prior to addition to cells, rhIL-17A (30 ng/mL) in assay medium was incubated with either DMSO alone, compounds, or anti-IL17 receptor antibody (3 μg/mL) for 1 hour at 37° C. The final concentration of DMSO in all samples was 0.25%. The final concentration of compounds varied from 0.03 μM to 25 μM.
Immediately before stimulation, cells were washed once with fresh assay medium. Then, 100 μL of the test samples was added in triplicate wells and the plates incubated for 20 hours in a humidified 37° C., 5% CO2 incubator. The assay medium from each well was collected and the IL-6 concentration in cell culture supernatants was determined by ELISA either immediately or after storage at −20° C.
A water-soluble tetrazolium salt (WST1) viability assay was immediately performed on the cells after the conditioned medium was collected using a WST1 reagent purchased from Roche. The concentration of IL-6 obtained from ELISA was normalized by the WST1 data.

Assay [2] addresses T1, biotinylated human IL-17 (binding to IL17R/Fc) (Homo sapiens, UniProt Q16552).
T1 construct: purchased R&D Systems 317-ILB (IL-17, biotinylated); 177-IR (IL17R/Fc)
T1 sequence (Q16552 20-155 limits assumed): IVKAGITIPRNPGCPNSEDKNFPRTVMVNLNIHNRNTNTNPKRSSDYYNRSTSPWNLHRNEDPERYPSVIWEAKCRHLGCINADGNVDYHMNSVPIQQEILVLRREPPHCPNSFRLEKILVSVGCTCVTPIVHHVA
Description: IL-17 competition ELISA II (captured IL17R/Fc, biotinylated IL-17). An outline of the steps: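 Anti-human IgG-coated plates captured IL17R/Fc (10 nM), then compound (5-fold dilutions from 1 μM) and biotinylated human IL-17 (20 nM stock) were added for 30 min at room temperature in PBST. Bound IL-17 detected by streptavidin-HRP/TMB at 450 nm. IC50 from 4-parameter logistic fit between no-competitor and blank controls.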
On the technique in general: ELISA stands for enzyme-linked immunosorbent assay.

In assay [3] the target is T2, recombinant human IL17a (binding to its receptor IL17R) (Homo sapiens, UniProt Q16552).
T2 construct: purchased R&D Systems 317-ILB (IL17a); 177-IR (IL17R/Fc)
T2 sequence (Q16552 20-155 limits assumed): T1 sequence (Q16552 20-155 limits assumed)
Kind of assay: IL-17 competition ELISA I (IL17a coated, IL17R/Fc binding). As for the experimental part: ELISA I: The ability of the compounds to block binding of IL17a to its receptor, IL17R, was analyzed in a competition ELISA format. High binding 96-well plates (Costar #9018) were coated with 20 nM of recombinant human IL17a (R&D Systems #317-ILB) in PBS (0.64 μg/mL), 100 μL/well, for 30 min at 37′C followed by 5 min at 4′C. Plates were then washed in PBST (PBS/0.05% Tween-20) on a plate washer, (Biotech EL-450) blocked with protein-free blocking buffer (Thermo Scientific #37573) in 250 μL/well for 30 min on shaker at room temperature, and then washed again. Compound dilutions prepared in PBST were added into the wells in duplicates followed by the addition of IL17R/Fc (R&D Systems #177-IR) at a final concentration of 12 nM. Plates were then incubated for 30 min at room temperature on the shaker. Wells with no compound served as a positive “no competitor” control, while wells with no IL17R/Fc and no compound served as a blank negative control. After an additional PBST wash, 50 ng/mL HRP-conjugated goat anti-human Fc IgG (KPL #04-10-20) was added to the plate for 30 min at room temperature, followed by PBST wash and addition of SureBlue™ TMB (KPL #52-00-03). After the sufficient color development, the reaction was fixed by the addition of 100 μL/well 0.5 N HCl and absorbance was measured at 450 nm on Biotek plate reader.
Data were processed using BioAssay Enterprise v10.1.4 (CambridgeSoft) software. Linear OD λ450 were plotted against log concentration (x) and fitted to a 4-parameter logistic equation. IC50 was calculated using positive ‘no competitor’ control data as an upper limit and blank control as a lower limit in each assay.

Some results are limits rather than exact numbers.

In the case of `O=C1CNC(=O)[C@@H](Cc2ccc(NC(=O)[C@H](Cc3ccccc3Cl)NC(=O)Cc3cccnc3)cc2)NC(=O)CC2(CCCC2)CC(=O)NCCCCCN1` [Compound 198], the half-maximal inhibitory concentration (IC50) in assay [1] was in the range of 1000 to 10000 nM.

For `CN1CCCCCNC(=O)CC2(CCCC2)CC(=O)N[C@H](Cc2ccc(NC(=O)[C@@H](NC(=O)Cc3ccccc3)C3CCCCC3)cc2)C(=O)NCC1=O` [Compound 335], the 50% inhibitory concentration (IC50) was < 100 nM in assay [2] and 100 to 1000 nM in assay [3].

Consider `O=C1CC2(CCCC2)CC(=O)N[C@H](Cc2ccc(NC(=O)[C@@H](NC(=O)Cc3ccc(CO)cc3)C3CCCCC3)cc2)C(=O)NCCOCCOCCN1` [Compound 344], for which the IC50 in assay [2] lay in the range of 100 to 1000 nM; in assay [3] it was 1000 to 10000 nM.

Consider `O=C1CC2(CCCC2)CC(=O)N[C@H](Cc2ccc(NC(=O)[C@H](Cc3ccccc3Cl)NC(=O)Cc3ccccc3)cc2)C(=O)NCCCCCCN1` [Compound 345], for which the IC50 was < 100 nM in assay [2] and 100 to 1000 nM in assay [3].

Consider `O=C1CC2(CCCC2)CC(=O)N[C@H](Cc2ccc(NC(=O)[C@@H](NC(=O)Cc3ccccc3)C3CCCCC3)cc2)C(=O)NCCCCCCN1` [Compound 346], for which the results for the IC50 in assay [2] and in assay [3] were < 100 nM and 1000 to 10000 nM, respectively.

Take `O=C1CC2(CCCC2)CC(=O)N[C@H](Cc2ccc(NC(=O)[C@H](Cc3ccccc3Cl)NC(=O)Cc3ccccc3)cc2)C(=O)NCCCCCCCN1` [Compound 347]: the IC50 is < 100 nM in assay [2] and 100 to 1000 nM in assay [3].

As to `O=C1CC2(CCCC2)CC(=O)N[C@H](Cc2ccc(NC(=O)[C@@H](NC(=O)Cc3ccccc3)C3CCCCC3)cc2)C(=O)NCCCCCCCN1` [Compound 348], the IC50 in assay [2] was in the range of 100 to 1000 nM; in assay [3], 1000 to 10000 nM.

`O=C1CC2(CCCC2)CC(=O)N[C@H](Cc2ccc(NC(=O)[C@H](Cc3ccccc3Cl)NC(=O)Cc3ccccc3)cc2)C(=O)NCCCCCCCCCN1` [Compound 349]: the IC50 in assay [2] is < 100 nM; in assay [3], 1000 to 10000 nM.

Take `O=C1CC2(CCCC2)CC(=O)N[C@H](Cc2ccc(NC(=O)[C@H](Cc3ccccc3Cl)NC(=O)Cc3ccc(CO)cc3)cc2)C(=O)NCCCCCCN1` [Compound 354]: the IC50 in assay [2] is < 100 nM; in assay [3], 100 to 1000 nM.

For the compound `O=C1CC2(CCCC2)CC(=O)N[C@H](Cc2ccc(NC(=O)[C@@H](NC(=O)Cc3ccc(CO)cc3)C3CCCCC3)cc2)C(=O)NCCCCCCN1` [Compound 355], the figures for the half-maximal inhibitory concentration (IC50) in assay [2] and in assay [3] were < 100 nM and 1000 to 10000 nM, respectively.

As for `O=C1CC2(CCCC2)CC(=O)N[C@H](Cc2ccc(NC(=O)[C@H](Cc3ccccc3Cl)NC(=O)Cc3ccc(CO)cc3)cc2)C(=O)NCCCCCCCN1` [Compound 356], the IC50 in assay [2] was < 100 nM; in assay [3], 100 to 1000 nM.

On to `O=C1CC2(CCCC2)CC(=O)N[C@H](Cc2ccc(NC(=O)[C@@H](NC(=O)Cc3ccc(CO)cc3)C3CCCCC3)cc2)C(=O)NCCCCCCCN1` [Compound 357], for which the IC50 was < 100 nM in assay [2] and 100 to 1000 nM in assay [3].

Regarding `O=C1CC2(CCCC2)CC(=O)N[C@H](Cc2ccc(NC(=O)[C@H](Cc3ccccc3Cl)NC(=O)Cc3ccc(CO)cc3)cc2)C(=O)NCCCCCCCCCN1` [Compound 358], the figures for the IC50 in assay [2] and in assay [3] were < 100 nM and 100 to 1000 nM, respectively.

In the case of `O=C1CC2(CCCC2)CC(=O)N[C@H](Cc2ccc(NC(=O)[C@@H](NC(=O)Cc3ccc(CO)cc3)C3CCCCC3)cc2)C(=O)NCCCCCCCCCN1` [Compound 359], the IC50 is < 100 nM in assay [2] and 1000 to 10000 nM in assay [3].

`C[C@H]1NC(=O)[C@@H](Cc2ccc(NC(=O)[C@@H](NC(=O)Cc3ccc(CO)cc3)C3CCCCC3)cc2)NC(=O)CC2(CCCC2)CC(=O)NCCCCCNC1=O` [Compound 360]: the IC50 in assay [2] was < 100 nM; in assay [3], 100 to 1000 nM.

For the compound `O=C1CNC(=O)[C@@H](Cc2ccc(NC(=O)[C@@H](NC(=O)c3cccnc3)C3CCCCC3)cc2)NC(=O)CC2(CCCC2)CC(=O)NCCCCCN1` [Compound 362], the figures for the half-inhibitory concentration (IC50) in assay [2] and in assay [3] were 100 to 1000 nM and 1000 to 10000 nM, respectively.

For the compound `O=C1CC2(CCCC2)CC(=O)N[C@H](Cc2ccc(NC(=O)[C@H](Cc3ccccc3Cl)NC(=O)Cc3ccc(CO)cc3)cc2)C(=O)NC/C=C/CCCCN1` [Compound 364], the half-maximal inhibitory concentration (IC50) was < 100 nM in assay [2] and 100 to 1000 nM in assay [3].

Consider `C[C@H]1NC(=O)[C@@H](Cc2ccc(NC(=O)[C@@H](NC(=O)c3cccnc3)C3CCCCC3)cc2)NC(=O)CC2(CCCC2)CC(=O)N[C@H](C(=O)O)CCCCNC1=O` [Compound 370], for which the half-inhibitory concentration (IC50) is < 100 nM in assay [2] and 100 to 1000 nM in assay [3].

In the case of `CN1CCCCCCCCN(C)C(=O)[C@@H](Cc2ccc(N(C)C(=O)[C@H](Cc3ccccc3Cl)N(C)C(=O)c3ccccc3)cc2)N(C)C(=O)CC2(CCCC2)CC1=O` [Compound 372], the IC50 in assay [2] was in the range of 100 to 1000 nM; in assay [3], 1000 to 10000 nM.

For the compound `O=C1CNC(=O)[C@@H](Cc2ccc(NC(=O)[C@@H](NC(=O)Cc3ccc(F)c(F)c3)C3CCCCC3)cc2)NC(=O)CC2(CCCC2)CC(=O)NCCCCCN1` [Compound 373], the IC50 in assay [2] and in assay [3] was < 100 nM throughout.

On to `O=C1CNC(=O)[C@@H](Cc2ccc(NC(=O)[C@@H](NC(=O)Cc3ccc(F)cc3F)C3CCCCC3)cc2)NC(=O)CC2(CCCC2)CC(=O)NCCCCCN1` [Compound 374], for which the IC50 in assay [2] and in assay [3] was < 100 nM in each case.

Turning to `O=C1CNC(=O)[C@@H](Cc2ccc(NC(=O)[C@@H](NC(=O)Cc3ccc(CO)cc3)C3CCCCC3)cc2)NC(=O)CC2(CCCC2)CC(=O)NCCCCCN1` [Compound 375], the IC50 in assay [2] is < 100 nM; in assay [3], 100 to 1000 nM.

In the case of `O=C1CNC(=O)[C@@H](Cc2ccc(NC(=O)[C@@H](NC(=O)c3cccc(O)c3)C3CCCCC3)cc2)NC(=O)CC2(CCCC2)CC(=O)NCCCCCN1` [Compound 376], the IC50 is < 100 nM in assay [2] and 100 to 1000 nM in assay [3].

Turning to `CC(=O)N[C@H](C(=O)Nc1ccc(C[C@H]2NC(=O)CC3(CCCC3)CC(=O)NCCCCCNC(=O)CNC2=O)cc1)C1CCCCC1` [Compound 377], the IC50 in assay [2] was 100 to 1000 nM; in assay [3], < 100 nM.

`O=C1CNC(=O)[C@@H](Cc2ccc(NC(=O)[C@@H](NC(=O)c3ccccc3)C3CCCCC3)cc2)NC(=O)CC2(CCCC2)CC(=O)NCCCCCN1` [Compound 379]: the concentration for half-maximal inhibition (IC50) was < 100 nM in assay [2] and 1000 to 10000 nM in assay [3].

`O=C1CNC(=O)[C@@H](Cc2ccc(NC(=O)[C@@H](NC(=O)Cc3ccc(F)cc3)C3CCCCC3)cc2)NC(=O)CC2(CCCC2)CC(=O)NCCCCCN1` [Compound 380] displayed an IC50 in assay [1] of 100 to 1000 nM.

Take `O=C1CNC(=O)[C@@H](Cc2ccc(NC(=O)[C@@H](NC(=O)Cc3ccccn3)C3CCCCC3)cc2)NC(=O)CC2(CCCC2)CC(=O)NCCCCCN1` [Compound 381]: the 50% inhibitory concentration (IC50) was < 100 nM in assay [2] and 100 to 1000 nM in assay [3].

`O=C1CNC(=O)[C@@H](Cc2ccc(NC(=O)[C@@H](NC(=O)c3cccc(F)c3)C3CCCCC3)cc2)NC(=O)CC2(CCCC2)CC(=O)NCCCCCN1` [Compound 382]: the IC50 in assay [2] was < 100 nM; in assay [3], 100 to 1000 nM.

For the compound `O=C1CNC(=O)[C@@H](Cc2ccc(NC(=O)[C@@H](NC(=O)c3cccnc3)C3CCCCC3)cc2)NC(=O)CC2(CCCC2)CC(=O)N[C@H](C(=O)O)CCCCN1` [Compound 384], the IC50 was < 100 nM in assay [2] and 100 to 1000 nM in assay [3].
